Experimental data taken from PubChem BioAssay AID2060342 (Molecular Pharmacology Branch, DTP, NCI, 2025).

Tested on: 171881-019-R-J1-PDC multicell spheroid viability
Assay: Anticancer human tumor 171881-019-R-J1-PDC patient-derived invasive breast carcinoma cell line growth inhibition [IpAb]
Details: for IC50: curve of first compound; for viability, T/C: stronger effect = lower value
Outline: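 Spheroids of 60% malignant cells, 25% HUVEC and 15% MSC were exposed to targeted agents combined with ipatasertib or abemaciclib. Doses started at or near clinical Cmax (10 microM when unknown) and fell in half-log steps.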

[1] = second compound 0.01 µM, first compound 0.0316 µM
[2] = second compound 0.01 µM, first compound 0.1 µM
[3] = second compound 0.0316 µM, first compound 0.0316 µM
[4] = second compound 0.0316 µM, first compound 0.1 µM
[5] = second compound 0.1 µM, first compound 0.0316 µM
[6] = second compound 0.1 µM, first compound 0.1 µM
[7] = second compound 0.316 µM, first compound 0.0316 µM
[8] = second compound 0.316 µM, first compound 0.1 µM
[9] = second compound 1 µM, first compound 0.0316 µM
[10] = second compound 1 µM, first compound 0.1 µM
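Further: spheroids exposed to the agents for seven days before readout.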

## C=CC(=O)N1CCN(c2nc(=O)n(-c3c(C)ccnc3C(C)C)c3nc(-c4c(O)cccc4F)c(F)cc23)C(C)C1 (stereo not given) + CCN1CCN(Cc2ccc(Nc3ncc(F)c(-c4cc(F)c5nc(C)n(C(C)C)c5c4)n3)nc2)CC1
Second compound 0.01 µM
  IC50: 8350 nM
Second compound 0.0316 µM
  IC50: 9500 nM
Second compound 0.1 µM
  IC50: > 10000 nM
Second compound 0.316 µM
  IC50: > 10000 nM
Second compound 1 µM
  IC50: > 10000 nM
[1]
  viability, T/C: 103%
[2]
  viability, T/C: 90.1%
Second compound 0.01 µM, first compound 0.316 µM
  viability, T/C: 89.5%
Second compound 0.01 µM, first compound 1 µM
  viability, T/C: 94.8%
Second compound 0.01 µM, first compound 3.16 µM
  viability, T/C: 97.5%
Second compound 0.01 µM, first compound 10 µM
  viability, T/C: 41.6%
[3]
  viability, T/C: 99.1%
[4]
  viability, T/C: 94.1%
Second compound 0.0316 µM, first compound 0.316 µM
  viability, T/C: 104%
Second compound 0.0316 µM, first compound 1 µM
  viability, T/C: 90.6%
Second compound 0.0316 µM, first compound 3.16 µM
  viability, T/C: 91.5%
Second compound 0.0316 µM, first compound 10 µM
  viability, T/C: 47.7%
[5]
  viability, T/C: 117%
[6]
  viability, T/C: 128%
Second compound 0.1 µM, first compound 0.316 µM
  viability, T/C: 114%
Second compound 0.1 µM, first compound 1 µM
  viability, T/C: 108%
Second compound 0.1 µM, first compound 3.16 µM
  viability, T/C: 105%
Second compound 0.1 µM, first compound 10 µM
  viability, T/C: 49.7%
[7]
  viability, T/C: 136%
[8]
  viability, T/C: 132%
Second compound 0.316 µM, first compound 0.316 µM
  viability, T/C: 132%
Second compound 0.316 µM, first compound 1 µM
  viability, T/C: 131%
Second compound 0.316 µM, first compound 3.16 µM
  viability, T/C: 114%
Second compound 0.316 µM, first compound 10 µM
  viability, T/C: 59.7%
[9]
  viability, T/C: 148%
[10]
  viability, T/C: 148%
Second compound 1 µM, first compound 0.316 µM
  viability, T/C: 149%
Second compound 1 µM, first compound 1 µM
  viability, T/C: 143%
Second compound 1 µM, first compound 3.16 µM
  viability, T/C: 127%
Second compound 1 µM, first compound 10 µM
  viability, T/C: 76.6%

## CC(C)(C)c1cnc(CSc2cnc(NC(=O)C3CCNCC3)s2)o1 + CCN1CCN(Cc2ccc(Nc3ncc(F)c(-c4cc(F)c5nc(C)n(C(C)C)c5c4)n3)nc2)CC1
Second compound 0.01 µM
  IC50: 174 nM
Second compound 0.0316 µM
  IC50: 182 nM
Second compound 0.1 µM
  IC50: 191 nM
Second compound 0.316 µM
  IC50: 196 nM
Second compound 1 µM
  IC50: 185 nM
Second compound 0.01 µM, first compound 0.00949 µM
  viability, T/C: 104%
Second compound 0.01 µM, first compound 0.03 µM
  viability, T/C: 93.6%
Second compound 0.01 µM, first compound 0.0949 µM
  viability, T/C: 114%
Second compound 0.01 µM, first compound 0.3 µM
  viability, T/C: 5.39%
Second compound 0.01 µM, first compound 0.949 µM
  viability, T/C: 0.26%
Second compound 0.01 µM, first compound 3 µM
  viability, T/C: 0.29%
Second compound 0.0316 µM, first compound 0.00949 µM
  viability, T/C: 110%
Second compound 0.0316 µM, first compound 0.03 µM
  viability, T/C: 99.8%
Second compound 0.0316 µM, first compound 0.0949 µM
  viability, T/C: 121%
Second compound 0.0316 µM, first compound 0.3 µM
  viability, T/C: 3.9%
Second compound 0.0316 µM, first compound 0.949 µM
  viability, T/C: 0.25%
Second compound 0.0316 µM, first compound 3 µM
  viability, T/C: 0.36%
Second compound 0.1 µM, first compound 0.00949 µM
  viability, T/C: 116%
Second compound 0.1 µM, first compound 0.03 µM
  viability, T/C: 125%
Second compound 0.1 µM, first compound 0.0949 µM
  viability, T/C: 138%
Second compound 0.1 µM, first compound 0.3 µM
  viability, T/C: 0.81%
Second compound 0.1 µM, first compound 0.949 µM
  viability, T/C: 0.47%
Second compound 0.1 µM, first compound 3 µM
  viability, T/C: 0.46%
Second compound 0.316 µM, first compound 0.00949 µM
  viability, T/C: 132%
Second compound 0.316 µM, first compound 0.03 µM
  viability, T/C: 126%
Second compound 0.316 µM, first compound 0.0949 µM
  viability, T/C: 141%
Second compound 0.316 µM, first compound 0.3 µM
  viability, T/C: 1.4%
Second compound 0.316 µM, first compound 0.949 µM
  viability, T/C: 0.27%
Second compound 0.316 µM, first compound 3 µM
  viability, T/C: 0.57%
Second compound 1 µM, first compound 0.00949 µM
  viability, T/C: 148%
Second compound 1 µM, first compound 0.03 µM
  viability, T/C: 143%
Second compound 1 µM, first compound 0.0949 µM
  viability, T/C: 118%
Second compound 1 µM, first compound 0.3 µM
  viability, T/C: 1.51%
Second compound 1 µM, first compound 0.949 µM
  viability, T/C: 0.68%
Second compound 1 µM, first compound 3 µM
  viability, T/C: 1.06%

## Cn1ncnc1[C@H]1c2n[nH]c(=O)c3cc(F)cc(c23)N[C@@H]1c1ccc(F)cc1 + CCN1CCN(Cc2ccc(Nc3ncc(F)c(-c4cc(F)c5nc(C)n(C(C)C)c5c4)n3)nc2)CC1
Second compound 0.01 µM
  IC50: > 100 nM
Second compound 0.0316 µM
  IC50: > 100 nM
Second compound 0.1 µM
  IC50: > 100 nM
Second compound 0.316 µM
  IC50: > 100 nM
Second compound 1 µM
  IC50: > 100 nM
Second compound 0.01 µM, first compound 0.000316 µM
  viability, T/C: 88.2%
Second compound 0.01 µM, first compound 0.001 µM
  viability, T/C: 99.7%
Second compound 0.01 µM, first compound 0.00316 µM
  viability, T/C: 86.9%
Second compound 0.01 µM, first compound 0.01 µM
  viability, T/C: 102%
[1]
  viability, T/C: 95.5%
[2]
  viability, T/C: 109%
Second compound 0.0316 µM, first compound 0.000316 µM
  viability, T/C: 109%
Second compound 0.0316 µM, first compound 0.001 µM
  viability, T/C: 96.2%
Second compound 0.0316 µM, first compound 0.00316 µM
  viability, T/C: 113%
Second compound 0.0316 µM, first compound 0.01 µM
  viability, T/C: 114%
[3]
  viability, T/C: 104%
[4]
  viability, T/C: 113%
Second compound 0.1 µM, first compound 0.000316 µM
  viability, T/C: 118%
Second compound 0.1 µM, first compound 0.001 µM
  viability, T/C: 118%
Second compound 0.1 µM, first compound 0.00316 µM
  viability, T/C: 115%
Second compound 0.1 µM, first compound 0.01 µM
  viability, T/C: 114%
[5]
  viability, T/C: 116%
[6]
  viability, T/C: 113%
Second compound 0.316 µM, first compound 0.000316 µM
  viability, T/C: 126%
Second compound 0.316 µM, first compound 0.001 µM
  viability, T/C: 132%
Second compound 0.316 µM, first compound 0.00316 µM
  viability, T/C: 124%
Second compound 0.316 µM, first compound 0.01 µM
  viability, T/C: 127%
[7]
  viability, T/C: 130%
[8]
  viability, T/C: 126%
Second compound 1 µM, first compound 0.000316 µM
  viability, T/C: 143%
Second compound 1 µM, first compound 0.001 µM
  viability, T/C: 141%
Second compound 1 µM, first compound 0.00316 µM
  viability, T/C: 140%
Second compound 1 µM, first compound 0.01 µM
  viability, T/C: 135%
[9]
  viability, T/C: 137%
[10]
  viability, T/C: 138%
